These results are taken from US8969570B2, “Beta-lactamase inhibitors” (priority 2012, dated 2015).

Where a name gives a salt, the structure may show the parent alone.

What all share (format): cell-based
What all share (settings): β-lactam (CXA-101/Ceftolozane or ceftazidime) fixed at 4 μg/mL; compared with Avibactam (comparator compound CCC)

For assay [1], the system named is bacterial strains that express KPC β-lactamase (isogenic E. coli strain KPC-2). Description: Synergy MIC (sMIC) assay, KPC strain. From the text: (§1) A set of β-lactamase expressing isogenic E. coli strains was constructed by cloning a β-lactamase gene into a customized derivative of pBR322 (GenBank Accession Number J01749) and transforming the engineered plasmids into E. coli. The NdeI restriction site within the plasmid backbone of pBR322 was removed to generate pBR322 ΔNdeI. The pBR322 ΔNdeI vector itself, minus the blaTEM-1 gene, was amplified using two primers: (1) pBR-Pbla 5′-[…]-3, SEQ ID 1, a primer with an engineered NdeI restriction site at the 3′ end of the blaTEM-1 promoter and (2) pBR-vec-1 5′-[…]-3′, SEQ ID 2, a primer with an engineered BamHI restriction site at the 3′ end of the blaTEM-1 open reading frame. The chloramphenicol resistance gene, cat, was generated by PCR amplification from pKD3 (GenBank Accession Number AY048742) using primers with an engineered NdeI restriction site at the 5′ end (Pbla-cat 5′-[…]-3′, SEQ ID 3) and an engineered BamHI restriction site at the 3′ end (Vec-1-cat 5′-[…]-3′, SEQ ID 4) of the resistance gene. The two PCR products, pBR322 ΔNdeI and cat were ligated together generating pBR-CBST (pBR322 ΔNdeI ΔTEM-1::cat Seq. ID 5) which retains both the pBR322 tetracycline resistance cassette, tetA, and the plasmid origin of replication but the blaTEM-1 gene was replaced by the cat gene.
(§2) Using this engineering strategy a number of plasmids producing β-lactamase genes from different classes (see below) were generated using synthetic genes with an engineered NdeI restriction site at the 5′ end and BamHI restriction site at the 3′ end of each gene (GenScript). Both the synthetic β-lactamase genes and cat gene were ligated into the NdeI/BamHI sites of the pBR322 ΔNdeI PCR product and transformed into electrocompetent E. coli ElectroMax DH10B (Invitrogen/Life Technologies). E. coli DH10B harboring the recombinant plasmids were selected on LB agar (supplemented with 25 μg/mL tetracycline) and single isolated colonies were then inoculated into 5 mL LB media (supplemented with 25 μg/mL tetracycline), and incubated at 37° C. with aeration (250 rpm) for 18 hrs. The cultures were frozen back at −80° C. in 20% glycerol. The DNA sequence of the cloned β-lactamase genes was confirmed. The β-lactamase gene expression in the recombinant E. coli strains was driven by the blaTEM-1 promoter in the pBR-CBST plasmid and was characterized by MIC profiling of the E. coli recombinant strains against comparator β-lactam/BLI combinations in broth microdilution assay.
(§3) The synergy MIC (sMIC) assay determines the concentration of the BLI required to potentiate the activity of a fixed concentration of a β-lactam antibiotic against β-lactamase producing bacterial strains. The experimental protocol was performed according to Clinical and Laboratory Standards Institute (CLSI) guidelines with modifications as described below (CLSI guidelines can be derived from the CLSI document M07-A9 published in January 2012: “Methods for Dilution Antimicrobial Susceptibility Tests for Bacteria That Grow Aerobically; Approved Standard-Ninth Edition”). The assay is set-up by serially diluting the BLI across 11 of the 12 wells in each row of a 96-well broth microdilution assay plate, adding the β-lactam at a fixed concentration to all wells in the assay plate, inoculating the assay plate with bacterial strains, and determining the lowest concentration of BLI required to inhibit overnight bacterial growth.
(§4) To prepare for MIC testing, frozen glycerol stocks of laboratory engineered, isogenic E. coli strains, which contain cloned β-lactamase expressing plasmids were used to streak for isolated colonies on rich, selective LB agar supplemented with 25 μg/mL tetracycline to maintain the plasmid. All strains were incubated at 37° C. for 18-24 hrs.
(§5) On the day of testing, primary cultures were started by scraping off 5-10 colonies from the tetracycline supplemented LB plates containing engineered strains. […]

For assay [2], the system named is bacterial strains that express SHV-12 β-lactamase (isogenic E. coli strain). Description: Synergy MIC (sMIC) assay, SHV-12 strain.
Description: as §1, §2, §3, §4, §5

Assay [3] relates to bacterial strains that express OXA-15 β-lactamase (isogenic E. coli strain). The experiment in a line: Synergy MIC (sMIC) assay, OXA-15 strain.
Description: as §1, §2, §3, §4, §5

Assay [4] relates to bacterial strains that express P99 β-lactamase (isogenic E. coli strain P99 AmpC). The experiment in a line: Synergy MIC (sMIC) assay, P99 AmpC strain.
Description: as §1, §2, §3, §4, §5

Assay [5] relates to bacterial strains that express CTX-M-15 β-lactamase (isogenic E. coli strain). Description: Synergy MIC (sMIC) assay, CTX-M-15 strain.
Description: as §1, with “cat gene. […]” for “cat gene.”

With `Cc1nnc([C@@H]2CC[C@@H]3CN2C(=O)N3OS(=O)(=O)O)o1` [Compound 200, (2S,5R)-2-(5-methyl-1,3,4-oxadiazol-2-yl)-7-oxo-1,6-diazabicyclo[3.2.1]octan-6-yl hydrogen sulfate], in assay [1], the “activity against bacterial strains that express KPC β-lactamase relative to Avibactam (sMIC)” value is “as active or more active than Avibactam”. Also, in assay [2], the “activity against bacterial strains that express SHV-12 β-lactamase relative to Avibactam (sMIC)” value is recorded as “as active as Avibactam”. Moreover, in assay [3], the “activity against bacterial strains that express OXA-15 β-lactamase relative to Avibactam (sMIC)” value is given as “more active than Avibactam”.
As for `CCc1nnc([C@@H]2CC[C@@H]3CN2C(=O)N3OS(=O)(=O)O)o1` [Compound 201, (2S,5R)-2-(5-ethyl-1,3,4-oxadiazol-2-yl)-7-oxo-1,6-diazabicyclo[3.2.1]octan-6-yl hydrogen sulfate], the “activity against bacterial strains that express KPC β-lactamase relative to Avibactam (sMIC)” value in assay [1] was “as active or more active than Avibactam”. Besides, the “activity against bacterial strains that express OXA-15 β-lactamase relative to Avibactam (sMIC)” value in assay [3] was “more active than Avibactam”.
With `NC(=O)c1noc([C@@H]2CC[C@@H]3CN2C(=O)N3OS(=O)(=O)O)n1` [Compound 401, (2S,5R)-2-(3-carbamoyl-1,2,4-oxadiazol-5-yl)-7-oxo-1,6-diazabicyclo[3.2.1]octan-6-yl hydrogen sulfate], in assay [1], the “activity against bacterial strains that express KPC β-lactamase relative to Avibactam (sMIC)” value was “as active or more active than Avibactam”. In assay [2], the “activity against bacterial strains that express SHV-12 β-lactamase relative to Avibactam (sMIC)” value is given as “as active as Avibactam”.
Turning to `N#Cc1cc([C@@H]2CC[C@@H]3CN2C(=O)N3OS(=O)(=O)O)no1` [Compound 102, (2S,5R)-2-(5-cyanoisoxazol-3-yl)-7-oxo-1,6-diazabicyclo[3.2.1]octan-6-yl hydrogen sulfate], the “activity against bacterial strains that express KPC β-lactamase relative to Avibactam (sMIC)” value in assay [1] was “as active or more active than Avibactam”.
Consider `O=C1N2C[C@@H](CC[C@H]2c2nnc(C3CNCCO3)o2)N1OS(=O)(=O)O` (stereo partly drawn) [Compound 206, (2S,5R)-2-(5-(morpholin-2-yl)-1,3,4-oxadiazol-2-yl)-7-oxo-1,6-diazabicyclo[3.2.1]octan-6-yl hydrogen sulfate], for which, in assay [1], the “activity against bacterial strains that express KPC β-lactamase relative to Avibactam (sMIC)” value is on record as “as active or more active than Avibactam”. In addition, the “activity against bacterial strains that express P99 β-lactamase relative to Avibactam (sMIC)” value in assay [4] is recorded as “as active as Avibactam”. Also, in assay [3], the “activity against bacterial strains that express OXA-15 β-lactamase relative to Avibactam (sMIC)” value is recorded as “more active than Avibactam”.
On to `CN1CCN(c2nnc([C@@H]3CC[C@@H]4CN3C(=O)N4OS(=O)(=O)O)o2)CC1` [Compound 205, (2S,5R)-2-(5-(4-methylpiperazin-1-yl)-1,3,4-oxadiazol-2-yl)-7-oxo-1,6-diazabicyclo[3.2.1]octan-6-yl hydrogen sulfate], for which the “activity against bacterial strains that express KPC β-lactamase relative to Avibactam (sMIC)” value in assay [1] was “as active or more active than Avibactam”. Besides, in assay [3], the “activity against bacterial strains that express OXA-15 β-lactamase relative to Avibactam (sMIC)” value is “more active than Avibactam”.
For the compound `CNc1nnc([C@@H]2CC[C@@H]3CN2C(=O)N3OS(=O)(=O)O)o1` [Compound 203, (2S,5R)-2-(5-(methylamino)-1,3,4-oxadiazol-2-yl)-7-oxo-1,6-diazabicyclo[3.2.1]octan-6-yl hydrogen sulfate], in assay [1], the “activity against bacterial strains that express KPC β-lactamase relative to Avibactam (sMIC)” value is “as active or more active than Avibactam”.
For the compound `O=C1N2C[C@@H](CC[C@H]2c2ncns2)N1OS(=O)(=O)O` [Compound 500, (2S,5R)-7-oxo-2-(1,2,4-thiadiazol-5-yl)-1,6-diazabicyclo[3.2.1]octan-6-yl hydrogen sulfate], in assay [4], the “activity against bacterial strains that express P99 β-lactamase relative to Avibactam (sMIC)” value is given as “as active as Avibactam”.
For `CN1CCC(c2nnc([C@@H]3CC[C@@H]4CN3C(=O)N4OS(=O)(=O)O)o2)CC1` [Compound 204, (2S,5R)-2-(5-(1-methylpiperidin-4-yl)-1,3,4-oxadiazol-2-yl)-7-oxo-1,6-diazabicyclo[3.2.1]octan-6-yl hydrogen sulfate], in assay [1], the “activity against bacterial strains that express KPC β-lactamase relative to Avibactam (sMIC)” value is reported as “as active or more active than Avibactam”. Moreover, the “activity against bacterial strains that express P99 β-lactamase relative to Avibactam (sMIC)” value in assay [4] is on record as “as active as Avibactam”. Moreover, the “activity against bacterial strains that express OXA-15 β-lactamase relative to Avibactam (sMIC)” value in assay [3] is given as “more active than Avibactam”.
For `O=C1N2C[C@@H](CC[C@H]2c2nnc(N3CCNCC3)s2)N1OS(=O)(=O)O` [Compound 302, (2S,5R)-7-oxo-2-(5-(piperazin-1-yl)-1,3,4-thiadiazol-2-yl)-1,6-diazabicyclo[3.2.1]octan-6-yl hydrogen sulfate], the “activity against bacterial strains that express KPC β-lactamase relative to Avibactam (sMIC)” value in assay [1] is listed as “as active or more active than Avibactam”. In addition, in assay [2], the “activity against bacterial strains that express SHV-12 β-lactamase relative to Avibactam (sMIC)” value is reported as “as active as Avibactam”. The “activity against bacterial strains that express OXA-15 β-lactamase relative to Avibactam (sMIC)” value in assay [3] is recorded as “more active than Avibactam”.
For the compound `NC(=O)c1cc([C@@H]2CC[C@@H]3CN2C(=O)N3OS(=O)(=O)O)no1` [Compound 103, (2S,5R)-2-(5-carbamoylisoxazol-3-yl)-7-oxo-1,6-diazabicyclo[3.2.1]octan-6-yl hydrogen sulfate], the “activity against bacterial strains that express KPC β-lactamase relative to Avibactam (sMIC)” value in assay [1] was “as active or more active than Avibactam”. Moreover, the “activity against bacterial strains that express SHV-12 β-lactamase relative to Avibactam (sMIC)” value in assay [2] is listed as “as active as Avibactam”.
As for `NCc1nnc([C@@H]2CC[C@@H]3CN2C(=O)N3OS(=O)(=O)O)s1` [Compound 301, (2S,5R)-2-(5-(aminomethyl)-1,3,4-thiadiazol-2-yl)-7-oxo-1,6-diazabicyclo[3.2.1]octan-6-yl hydrogen sulfate], the “activity against bacterial strains that express KPC β-lactamase relative to Avibactam (sMIC)” value in assay [1] is reported as “as active or more active than Avibactam”. For the same compound, the “activity against bacterial strains that express SHV-12 β-lactamase relative to Avibactam (sMIC)” value in assay [2] is listed as “as active as Avibactam”. Further, the “activity against bacterial strains that express P99 β-lactamase relative to Avibactam (sMIC)” value in assay [4] was “as active as Avibactam”. Besides, the “activity against bacterial strains that express OXA-15 β-lactamase relative to Avibactam (sMIC)” value in assay [3] is “more active than Avibactam”.
On to `O=C1N2C[C@@H](CC[C@H]2c2ccon2)N1OS(=O)(=O)O` [Compound 101, (2S,5R)-2-(isoxazol-3-yl)-7-oxo-1,6-diazabicyclo[3.2.1]octan-6-yl hydrogen sulfate], for which the “activity against bacterial strains that express KPC β-lactamase relative to Avibactam (sMIC)” value in assay [1] was “as active or more active than Avibactam”. In assay [5], the “activity against bacterial strains that express CTX-M-15 β-lactamase relative to Avibactam (sMIC)” value is reported as “as active as Avibactam”. For the same compound, the “activity against bacterial strains that express P99 β-lactamase relative to Avibactam (sMIC)” value in assay [4] is listed as “as active as Avibactam”.
As to `CCOC(=O)c1noc([C@@H]2CC[C@@H]3CN2C(=O)N3OS(=O)(=O)O)n1` [Compound 402, ethyl 5-((2S,5R)-7-oxo-6-(sulfooxy)-1,6-diazabicyclo[3.2.1]octan-2-yl)-1,2,4-oxadiazole-3-carboxylate], the “activity against bacterial strains that express SHV-12 β-lactamase relative to Avibactam (sMIC)” value in assay [2] is given as “as active as Avibactam”.
